# Assay results reported in patent publication US10603345B2, “Pharmaceutical composition for treating respiratory disease” (Kunming Institute of Botany, The Chinese Academy of Sciences, priority 2015, dated 2020).
# Columns and labels:
# Assay type in all cases: in vivo
# [1] = system: inflammatory cell in LPS-induced rat; assay: Effect on inflammatory cell and classification in BALF of LPS-induced rat; settings: ig 7 d, dose/kg: DXM 1.5 mg, Test group 1 30 mg, 2 15 mg, 3 7.5 mg, x ± S
# Experimental: (§1) Animal source: 190˜220 g male SD rat, from laboratory animal department of Kunming Medical University, License No. SCXK (Dian) 2011-0004.
# (§2) Method and route: lipopolysaccharide (LPS) was used to induce a rat airway inflammation model; after intragastrical administration for 7 d at a dose of 10 mL/kg, the animal was sacrificed at the eighth day.
# (§3) Sample preparation: all the samples were prepared by using 0.5% carboxymethylcellulose sodium (0.5% CMC-Na).
# Group and dose: in Test group 1 and Test group 2, the ratio of picrinine, vallesamine, scholaricine and 19-epischolaricine by weight was 43:16:30:8 and 20:38:30:7, respectively, and the other groups and doses thereof were as described in Example 9.
# Test index: Total number of white blood cells (WBCs) and inflammatory cell classification in bronchoalveolar lavage fluid (BALF) were used as indexes.
# IL-8 in LPS-induced rat = assay: Effect on IL-8 in LPS-induced rat; settings: ig 7 d, dose/kg: DXM 1.5 mg, Test group 1 30 mg, 2 15 mg, 3 7.5 mg, x ± S
# Experimental: as §1, §2, §3
# Group and dose: in Test group 1 and Test group 2, the ratio of picrinine, vallesamine, scholaricine and 19-epischolaricine by weight was 48:10:30:9 and 12:14:15:6, respectively, and the other groups and doses thereof were as described in Example 9.
# Test index: IL-8 in bronchoalveolar lavage fluid (BALF), serum, and homogenate was used as index.
# TNF-α in LPS-induced rat = assay: Effect on TNF-α in LPS-induced rat; settings: ig 7 d, dose/kg: DXM 1.5 mg, Test group 1 30 mg, 2 15 mg, 3 7.5 mg, x ± S
# Experimental: as §1, §2, §3
# Group and dose: in Test group 1 and Test group 2, the ratio of picrinine, vallesamine, scholaricine and 19-epischolaricine by weight was, 45:36:7:10 and 10:18:9:2, respectively, and the other groups and doses thereof were as described in Example 9.
# Test index: TNF-α in bronchoalveolar lavage fluid (BALF), serum, and homogenate was used as index.
# NO in LPS-induced rat = assay: Effect on NO in LPS-induced rat; settings: ig 7 d, dose/kg: DXM 1.5 mg, Test group 1 30 mg, 2 15 mg, 3 7.5 mg, x ± S
# Experimental: as §1, §2, §3
# Group and dose: in Test group 1 and Test group 2, the ratio of picrinine, vallesamine, scholaricine and 19-epischolaricine by weight was 40:30:28:2 and 15:18:26:7, respectively, and the other groups and doses thereof were as described in Example 9.
# Test index: NO in bronchoalveolar lavage fluid (BALF), serum, and homogenate was used as index.
# SOD in LPS-induced rat = assay: Effect on SOD in LPS-induced rat; settings: ig 7 d, dose/kg: DXM 1.5 mg, Test group 1 30 mg, 2 15 mg, 3 7.5 mg, x ± S
# Experimental: as §1, §2, §3
# Group and dose: in Test group 1 and Test group 2, the ratio of picrinine, vallesamine, scholaricine and 19-epischolaricine by weight was 8:45:29:9 and 20:14:12:7, respectively, and the other groups and doses thereof were as described in Example 9.
# Test index: SOD in bronchoalveolar lavage fluid (BALF), serum, and homogenate was used as index.
# MDA in LPS-induced rat = assay: Effect on MDA in LPS-induced rat; settings: ig 7 d, dose/kg: DXM 1.5 mg, Test group 1 30 mg, 2 15 mg, 3 7.5 mg, x ± S
# Description: Group and dose: in Test group 1 and Test group 2, the ratio of picrinine, vallesamine, scholaricine and 19-epischolaricine by weight was 45:6:28:3 and 17:14:9:4, respectively, and the other groups and doses thereof were as described in Example 9.
# Test index: MDA in bronchoalveolar lavage fluid (BALF), serum, and homogenate was used as index.
# ALB in LPS-induced rat = assay: Effect on ALB in LPS-induced rat; settings: ig 7 d, dose/kg: DXM 1.5 mg, Test group 1 30 mg, 2 15 mg, 3 7.5 mg
# Experimental: as §1, §2, §3
# Group and dose: in Test group 1 and Test group 2, the ratio of picrinine, vallesamine, scholaricine and 19-epischolaricine by weight was 36:38:7:1 and 16:15:14:5, respectively, and the other groups and doses thereof were as described in Example 9.
# Test index: ALB in bronchoalveolar lavage fluid (BALF), and serum was used as index.
# AKP in LPS-induced rat = assay: Effect on AKP in LPS-induced rat; settings: ig 7 d, dose/kg: DXM 1.5 mg, Test group 1 30 mg, 2 15 mg, 3 7.5 mg
# Experimental: as §1, §2, §3
# Group and dose: in Test group 1 and Test group 2, the ratio of picrinine, vallesamine, scholaricine and 19-epischolaricine by weight was 8:25:30:9 and 12:10:9:2, respectively, and the other groups and doses thereof were as described in Example 9.
# Test index: AKP in bronchoalveolar lavage fluid (BALF), and serum was used as index.
# LDH in LPS-induced rat = assay: Effect on LDH in LPS-induced rat; settings: ig 7 d, dose/kg: DXM 1.5 mg, Test group 1 30 mg, 2 15 mg, 3 7.5 mg
# Experimental: as §1, §2, §3
# Group and dose: in Test group 1 and Test group 2, the ratio of picrinine, vallesamine, scholaricine and 19-epischolaricine by weight was 10:28:15:8 and 10:7:7:2, respectively, and the other groups and doses thereof were as described in Example 9.
# Test index: LDH in bronchoalveolar lavage fluid (BALF), and serum was used as index.
smiles,measurement,setting,value
"C[C@@H]1C[C@H]2[C@@H]3CCC4=CC(=O)C=C[C@]4(C)[C@@]3(F)[C@@H](O)C[C@]2(C)[C@@]1(O)C(=O)CO [DXM, dexamethasone]",BALF cell classification AM (alveolar macrophage),[1],52.5 ± 7.0 %
same,BALF cell classification L (lymphocyte),[1],9.3 ± 5.0^ %
same,BALF cell classification M (monocyte),[1],28.9 ± 6.20 %
same,BALF cell classification N (neutrophil),[1],8.2 ± 2.9 %
same,WBC,[1],3.35 ± 1.89 × 10^5/ml
same,IL-8 BALF,IL-8 in LPS-induced rat; BALF,24.62 ± 12.42 pg/mL
same,IL-8 lung tissue,IL-8 in LPS-induced rat; lung tissue homogenate,60.62 ± 20.11 pg/mL
same,IL-8 serum,IL-8 in LPS-induced rat; serum,29.62 ± 12.13 pg/mL
same,TNF-a BALF,TNF-α in LPS-induced rat; BALF,11.28 ± 4.51 pg/mL
same,TNF-a lung tissue,TNF-α in LPS-induced rat; lung tissue homogenate,152.11 ± 37.64 pg/mL
same,TNF-a Serum,TNF-α in LPS-induced rat; serum,5.11 ± 1.67 pg/mL
same,NO BALF,NO in LPS-induced rat; BALF,13.52 ± 4.17 µmol/L
same,NO Lung tissue,NO in LPS-induced rat; lung tissue homogenate,18.35 ± 5.30 µmol/L
same,NO Serum,NO in LPS-induced rat; serum,27.20 ± 7.67 µmol/L
same,SOD BALF,SOD in LPS-induced rat; BALF,63.35 ± 13.45 U/mL
same,SOD Lung tissue,SOD in LPS-induced rat; lung tissue homogenate,92.25 ± 8.88 U/mL
same,SOD Serum,SOD in LPS-induced rat; serum,307.6 ± 97.7 U/mL
same,MDA lung tissue,MDA in LPS-induced rat; lung tissue homogenate,1.61 ± 0.71 nmol/mL
same,MDA Serum,MDA in LPS-induced rat; serum,4.21 ± 1.49 nmol/mL
same,ALB BALF,ALB in LPS-induced rat; BALF,0.18 ± 0.07 g/L
same,ALB Serum,ALB in LPS-induced rat; serum,19.4 ± 1.4 g/L
same,AKP BALF,AKP in LPS-induced rat; BALF,29.0 ± 5.9 U/L
same,AKP Serum,AKP in LPS-induced rat; serum,116.1 ± 36.0 U/L
same,LDH BALF,LDH in LPS-induced rat; BALF,96.7 ± 25.6 U/L
same,LDH Serum,LDH in LPS-induced rat; serum,386.5 ± 92.7 U/L
